Converted amounts (≈) assume the structure as drawn. Read-outs that look alike come from different tables or passages of the source.
How the values were obtained:
[1] = target: T1, B. subtilis Pol IIIC (Bacillus subtilis, UniProt P13267); experiment: Polymerase IIIC (Pol IIIC) assay, determination of Ki values; format: biochemical; conditions: assay in absence of dGTP or dATP, Ki is the concentration that reduces control polymerase IIIC activity by 50 percent
T1 construct: made in house
Description: (§1) The following methods were used to characterize representative compounds. Minimal Inhibitory Concentration (MIC) determinations. MIC values were determined in 96 well plates, with bacterial growth monitored at OD 600 nm in 200µl following an initial bacterial seeding at approximately 1x10^5 colony forming units (CFU)/ml. Each drug is evaluated at five concentrations, with five data points at each dilution. MIC values (µg/ml) were determined against actively growing cultures in Heart-Brain Infusion (HBI) medium. Cell growth in cultures supplemented with a test compound was calculated as a percent of control at OD 600 nm after 16 to 18 hours at 37°C. […] Polymerase IIIC (Pol IIIC) assay. DNA polymerase activity (or inhibition thereof) was measured in a 96-well plate format. B. subtilis Pol IIIC was isolated as described by Hammond and Brown (Protein Expr. Purif., 3: 65-70 (1992)). Each 25 µl assay contained 30 mM Tris, pH 7.5, 10 mM magnesium acetate, 4 mM dithiothreitol, 20% glycerol, with 25 µM dATP, dCTP, dGTP and 10 µM dTTP (^3H-labelled at 1.44 Ci/mmole) and 0.4 mg/ml activated calf thymus DNA as substrates, as described previously (see Barnes et al, op. cit). Assays were initiated by the addition of 0.025 to 0.06 units of enzyme 1 unit is the amount required to incorporate 250 pmoles of [^3H] dTMP in a standard assay), incubated for 10 minutes at 30°C and terminated by the addition of 200 µl of cold 10% trichloroacetic acid (TCA),10 mM sodium pyrophosphate. Precipitated labeled DNA was collected on glass fiber filter plates, washed, dried, and counted in a liquid scintillation counter. Determination of Ki values. DNA polymerase activity was measured in a 96-well plate format in the absence of dGTP or dATP, depending on the structure of the test compound. Each 25 µl assay contained 30 mM Tris, pH 7.5, 10 mM magnesium acetate, 4 mM dithiothreitol, 20% glycerol, with 25 µM dATP, dCTP, and 10 µM dTTP (^3H-labelled at 1.44 Ci/mmole) and 0.4 mg/ml activated calf thymus DNA as substrates, as described previously. […] Assays were initiated by the addition of 0.025 to 0.06 units of enzyme (1 unit is the amount required to incorporate 250 pmoles of [^3H] dTMP in a standard assay), incubated for 10 minutes at 30 °C and terminated by the addition of 200 µl of cold 10% trichloroacetic acid, 10 mM sodium pyrophosphate. Precipitated labeled DNA was collected on glass fiber filter plates, washed, dried, and counted in a liquid scintillation counter. Ki is the concentration of test compound that reduces the control polymerase IIIC activity by 50 percent.

[2] = system: B. subtilis; experiment: Minimal Inhibitory Concentration (MIC) determination, 96 well plates; format: cell-based, Bacillus subtilis; conditions: for MIC: Bacillus subtilis, read-out: MIC (µg/ml) B. subtilis
Description: as §1
(§2) MIC values were determined for the Gram positive bacteria Bacillus subtilis, Staphylococcus aureus (two strains), Enterococcus fecalis, Enterococcus fecium, and for the Gram negative bacterium Escherichia coli.

[3] = system: S. aureus; experiment: as above; format: cell-based, Staphylococcus aureus; conditions: for MIC: Staphylococcus aureus, read-out: MIC (µg/ml) S. aureus
Description: (§3) The following methods were used to characterize representative compounds. Minimal Inhibitory Concentration (MIC) determinations. MIC values were determined in 96 well plates, with bacterial growth monitored at OD 600 nm in 200µl following an initial bacterial seeding at approximately 1x10^5 colony forming units (CFU)/ml. Each drug is evaluated at five concentrations, with five data points at each dilution. MIC values (µg/ml) were determined against actively growing cultures in Heart-Brain Infusion (HBI) medium. Cell growth in cultures supplemented with a test compound was calculated as a percent of control at OD 600 nm after 16 to 18 hours at 37°C. This plate format conserves test compound and provides precise, quantitative data with low standard deviation determinations. Polymerase IIIC (Pol IIIC) assay. DNA polymerase activity (or inhibition thereof) was measured in a 96-well plate format. B. subtilis Pol IIIC was isolated as described by Hammond and Brown (Protein Expr. Purif., 3: 65-70 (1992)). Each 25 µl assay contained 30 mM Tris, pH 7.5, 10 mM magnesium acetate, 4 mM dithiothreitol, 20% glycerol, with 25 µM dATP, dCTP, dGTP and 10 µM dTTP (^3H-labelled at 1.44 Ci/mmole) and 0.4 mg/ml activated calf thymus DNA as substrates, as described previously (see Barnes et al, op. cit). Assays were initiated by the addition of 0.025 to 0.06 units of enzyme 1 unit is the amount required to incorporate 250 pmoles of [^3H] dTMP in a standard assay), incubated for 10 minutes at 30°C and terminated by the addition of 200 µl of cold 10% trichloroacetic acid (TCA),10 mM sodium pyrophosphate. Precipitated labeled DNA was collected on glass fiber filter plates, washed, dried, and counted in a liquid scintillation counter. Determination of Ki values. DNA polymerase activity was measured in a 96-well plate format in the absence of dGTP or dATP, depending on the structure of the test compound. Each 25 µl assay contained 30 mM Tris, pH 7.5, 10 mM magnesium acetate, 4 mM dithiothreitol, 20% glycerol, with 25 µM dATP, dCTP, and 10 µM dTTP (^3H-labelled at 1.44 Ci/mmole) and 0.4 mg/ml activated calf thymus DNA as substrates, as described previously. To each well were added 2 µl of compound solution to give final concentrations ranging from 20 - 0.027 µg/ml in the assay. Assays were initiated by the addition of 0.025 to 0.06 units of enzyme (1 unit is the amount required to incorporate 250 pmoles of [^3H] dTMP in a standard assay), incubated for 10 minutes at 30 °C and terminated by the addition of 200 µl of cold 10% trichloroacetic acid, 10 mM sodium pyrophosphate. Precipitated labeled DNA was collected on glass fiber filter plates, washed, dried, and counted in a liquid scintillation counter. Ki is the concentration of test compound that reduces the control polymerase IIIC activity by 50 percent.
as §2

[4] = system: S.aureus (Smith); experiment: as above; format: cell-based, Staphylococcus aureus; conditions: for MIC: Staphylococcus aureus, read-out: MIC (µg/ml) S.aureus (Smith)
Description: as §1, §2

[5] = system: E. fecalis; experiment: as above; format: cell-based, Enterococcus fecalis; conditions: for MIC: Enterococcus, read-out: MIC (µg/ml) E. fecalis
Description: as §1, §2

[6] = system: E. fecium; experiment: as above; format: cell-based, Enterococcus fecium; conditions: for MIC: Enterococcus, read-out: MIC (µg/ml) E. fecium
Description: as §1, §2

[7] = system: E. coli; experiment: as above; format: cell-based, Escherichia coli; conditions: HBI medium, 16 to 18 hours at 37°C; for MIC: Escherichia coli, read-out: MIC (µg/ml) E. coli
Description: as §3, §2

[8] = HBI medium, 16 to 18 hours at 37°C

T1 sequence (P13267 whole entry): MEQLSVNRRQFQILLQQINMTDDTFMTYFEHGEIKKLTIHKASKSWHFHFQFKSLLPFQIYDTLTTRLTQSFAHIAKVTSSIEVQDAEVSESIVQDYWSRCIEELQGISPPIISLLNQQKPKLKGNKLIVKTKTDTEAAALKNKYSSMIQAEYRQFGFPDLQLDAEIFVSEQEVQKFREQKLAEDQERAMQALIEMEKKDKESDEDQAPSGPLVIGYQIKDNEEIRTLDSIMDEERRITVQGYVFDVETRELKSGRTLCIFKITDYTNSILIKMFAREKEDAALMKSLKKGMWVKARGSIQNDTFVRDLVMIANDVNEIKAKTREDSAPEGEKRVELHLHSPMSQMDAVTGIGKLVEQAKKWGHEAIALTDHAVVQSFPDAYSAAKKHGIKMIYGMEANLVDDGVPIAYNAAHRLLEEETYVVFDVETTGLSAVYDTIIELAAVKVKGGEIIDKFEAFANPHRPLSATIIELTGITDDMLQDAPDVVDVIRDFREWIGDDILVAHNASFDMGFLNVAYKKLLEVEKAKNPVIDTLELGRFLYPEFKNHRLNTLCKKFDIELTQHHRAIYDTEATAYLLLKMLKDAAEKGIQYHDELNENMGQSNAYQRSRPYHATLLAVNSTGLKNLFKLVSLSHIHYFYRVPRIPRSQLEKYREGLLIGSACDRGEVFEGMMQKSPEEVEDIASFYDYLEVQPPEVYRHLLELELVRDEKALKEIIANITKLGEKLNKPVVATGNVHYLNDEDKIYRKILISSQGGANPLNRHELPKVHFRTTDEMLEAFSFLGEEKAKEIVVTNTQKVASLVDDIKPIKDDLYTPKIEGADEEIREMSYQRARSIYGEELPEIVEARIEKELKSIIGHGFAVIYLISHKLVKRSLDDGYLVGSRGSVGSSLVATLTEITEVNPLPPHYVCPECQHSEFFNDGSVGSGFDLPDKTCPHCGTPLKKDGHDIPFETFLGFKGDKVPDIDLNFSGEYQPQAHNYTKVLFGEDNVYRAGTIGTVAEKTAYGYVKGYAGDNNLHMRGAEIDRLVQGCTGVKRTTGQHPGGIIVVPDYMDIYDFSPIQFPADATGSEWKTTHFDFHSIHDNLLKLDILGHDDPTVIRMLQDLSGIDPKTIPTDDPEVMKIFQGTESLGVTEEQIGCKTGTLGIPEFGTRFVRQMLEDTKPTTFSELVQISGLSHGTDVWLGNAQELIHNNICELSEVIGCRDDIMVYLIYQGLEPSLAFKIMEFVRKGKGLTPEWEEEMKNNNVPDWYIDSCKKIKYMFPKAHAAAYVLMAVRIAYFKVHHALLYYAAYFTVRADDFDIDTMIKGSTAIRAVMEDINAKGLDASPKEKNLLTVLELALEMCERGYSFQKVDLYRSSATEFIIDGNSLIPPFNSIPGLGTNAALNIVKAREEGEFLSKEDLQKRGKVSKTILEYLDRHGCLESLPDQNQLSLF

Molecule	Ki ([1]; read-out: Ki (µM) Pol IIIC) [µM]	MIC (µg/ml) B. subtilis [2, 8] [µg/mL]	MIC (µg/ml) S. aureus [3, 8] [µg/mL]	MIC (µg/ml) S.aureus (Smith) [4, 8] [µg/mL]	MIC (µg/ml) E. fecalis [5, 8] [µg/mL]	MIC (µg/ml) E. fecium [6, 8] [µg/mL]	MIC (µg/ml) E. coli [7] [µg/mL]	Ki ([1]; Ki (µM) Pol IIIC) [µM]	MIC [2, 8] [µg/mL]	MIC [3, 8] [µg/mL]	MIC [4, 8] [µg/mL]	MIC [5, 8] [µg/mL]	MIC [6, 8] [µg/mL]	MIC [7] [µg/mL]	MIC [2] [µg/mL]	MIC [3] [µg/mL]	MIC [4] [µg/mL]	MIC [5] [µg/mL]	MIC [6] [µg/mL]
3-{5-[1-(1-ethyl-3-carboxy-4-oxo-6,8-difluoro-7-quinolyl)-3-(1,3-diazabicyclononyl)]pentyl}-6-(3-ethyl-4-methylanilino)uracil [Compound 88]	0.024	0.625	1.25	1.25	2.5	5	>20	–	–	–	–	–	–	–	–	–	–	–	–
CCc1cc(Nc2cc(=O)n(CCCCN3CCN(c4cc5c(cc4F)c(=O)c(C(=O)O)cn5CC)CC3)c(=O)[nH]2)ccc1C [Compound 1, 3-{4-[1-(1-ethyl-3-carboxy-4-oxo-6-fluoro-7-quinolyl)-4-piperazinyl]butyl}-6-(3-ethyl-4-methylanilino)uracil]	–	–	–	–	–	–	–	0.024	0.156 (≈ 0.252 µM)	0.625 (≈ 1.01 µM)	0.625 (≈ 1.01 µM)	1.25 (≈ 2.02 µM)	1.25 (≈ 2.02 µM)	> 20	–	–	–	–	–
CCc1cc(Nc2cc(=O)n(CCCCCCCN3CCN(c4cc5c(cc4F)c(=O)c(C(=O)O)cn5C4CC4)CC3)c(=O)[nH]2)ccc1C [Compound 8, 3-{7-[1-(1-cyclopropyl-3-carboxy-4-oxo-6-fluoro-7-quinolyl)-4-piperazinyl]heptyl}-6-(3-ethyl-4-methylanilino)uracil]	–	–	–	–	–	–	–	0.013	0.313 (≈ 0.465 µM)	1.25 (≈ 1.86 µM)	0.625 (≈ 0.929 µM)	10 (≈ 14.9 µM)	> 80	40 (≈ 59.5 µM)	–	–	–	–	–
CCc1cc(Nc2cc(=O)n(CCOCCN3CCN(c4cc5c(cc4F)c(=O)c(C(=O)O)cn5C4CC4)CC3)c(=O)[nH]2)ccc1C [Compound 11, 3-{2-[1-(1-cyclopropyl-3-carboxy-4-oxo-6-fluoro-7-quinolyl)-4-piperazinyl]ethoxyethyl}-6-(3-ethyl-4-methylanilino)uracil]	–	–	–	–	–	–	–	0.03	1.25 (≈ 1.93 µM)	5 (≈ 7.73 µM)	2.5 (≈ 3.87 µM)	10 (≈ 15.5 µM)	5 (≈ 7.73 µM)	> 80	–	–	–	–	–
CCc1cc(Nc2cc(=O)n(CCCCCN3CCN(c4cc5c(cc4F)c(=O)c(C(=O)O)cn5C4CC4)CC3)c(=O)[nH]2)ccc1C [Compound 15, 3-{5-[1-(1-cyclopropyl-3-carboxy-4-oxo-6-fluoro-7-quinolyl)-4-piperazinyl]pentyl}-6-(3-ethyl-4-methylanilino)uracil]	–	–	–	–	–	–	–	0.03	0.156 (≈ 0.242 µM)	0.625 (≈ 0.969 µM)	0.313 (≈ 0.485 µM)	0.625 (≈ 0.969 µM)	1.25 (≈ 1.94 µM)	5 (≈ 7.75 µM)	–	–	–	–	–
Cc1ccc(Nc2cc(=O)n(CCCCN3CCN(c4cc5c(cc4F)c(=O)c(C(=O)O)cn5C4CC4)CC3)c(=O)[nH]2)cc1Cl [Compound 64, 3-{4-[1-(1-cyclopropyl-3-carboxy-4-oxo-6-fluoro-7-quinolyl)-4-piperazinyl]butyl}-6-(3-chloro-4-methylanilino)uracil]	–	–	–	–	–	–	–	0.055	0.313 (≈ 0.491 µM)	1.25 (≈ 1.96 µM)	0.625 (≈ 0.981 µM)	1.87 (≈ 2.94 µM)	3.7 (≈ 5.81 µM)	7.5 (≈ 11.8 µM)	–	–	–	–	–
Cc1ccc(Nc2cc(=O)n(CCCCN3CCN(c4cc5c(cc4F)c(=O)c(C(=O)O)cn5C4CC4)CC3)c(=O)[nH]2)cc1C [Compound 65, 3-{4-[1-(1-cyclopropyl-3-carboxy-4-oxo-6-fluoro-7-quinolyl)-4-piperazinyl]butyl}-6-(3,4-dimethylanilino)uracil]	–	–	–	–	–	–	–	0.095	0.23 (≈ 0.373 µM)	0.95 (≈ 1.54 µM)	0.46 (≈ 0.746 µM)	1.87 (≈ 3.03 µM)	1.87 (≈ 3.03 µM)	10 (≈ 16.2 µM)	–	–	–	–	–
CCc1cccc(Nc2cc(=O)n(CCCCN3CCN(c4cc5c(cc4F)c(=O)c(C(=O)O)cn5C4CC4)CC3)c(=O)[nH]2)c1 [Compound 66, 3-{4-[1-(1-cyclopropyl-3-carboxy-4-oxo-6-fluoro-7-quinolyl)-4-piperazinyl]butyl}-6-(3-ethylanilino)uracil]	–	–	–	–	–	–	–	0.26	0.313 (≈ 0.508 µM)	0.95 (≈ 1.54 µM)	0.625 (≈ 1.01 µM)	1.25 (≈ 2.03 µM)	3.7 (≈ 6 µM)	6.1 (≈ 9.89 µM)	–	–	–	–	–
O=C(O)c1cn(C2CC2)c2cc(N3CCN(CCCCn4c(=O)cc(Nc5ccc6c(c5)CCC6)[nH]c4=O)CC3)c(F)cc2c1=O [Compound 67, 3-{4-[1-(1-cyclopropyl-3-carboxy-4-oxo-6-fluoro-7-quinolyl)-4-piperazinyl]butyl}-6-(5-indanylamino)uracil]	–	–	–	–	–	–	–	0.034	0.23 (≈ 0.366 µM)	0.625 (≈ 0.994 µM)	0.313 (≈ 0.498 µM)	1.25 (≈ 1.99 µM)	2.5 (≈ 3.98 µM)	10 (≈ 15.9 µM)	–	–	–	–	–
CCc1cc(Nc2ccc(NC(=O)N3CCN(c4cc5c(cc4F)c(=O)c(C(=O)O)cn5CC)CC3)c(=O)[nH]2)ccc1C [Compound 77, 3-{[1-(1-ethyl-3-carboxy-4-oxo-6-fluoro-7-quinolyl)-4-piperazinyl]carboxamido}-6-(3-ethyl-4-methylanilino)-2-pyridone]	–	–	–	–	–	–	–	–	–	–	–	–	–	> 80	5 (≈ 8.49 µM)	2.5 (≈ 4.25 µM)	2.5 (≈ 4.25 µM)	> 80	> 80

From patent EP1401829B1, “NOVEL HETEROCYCLIC ANTIBACTERIAL COMPOUNDS” (Microbiotix, Inc., priority 2001, dated 2002)
